From ChEMBL document CHEMBL1154987, “C-Aryl glycoside inhibitors of SGLT2: Exploration of sugar modifications including C-5 spirocyclization” (Bioorg Med Chem Lett, 2010) come the findings set out here.

The target of data set [1] is T1, Sodium/glucose cotransporter 1 (Homo sapiens, UniProt P13866).
T1 sequence (P13866 whole entry): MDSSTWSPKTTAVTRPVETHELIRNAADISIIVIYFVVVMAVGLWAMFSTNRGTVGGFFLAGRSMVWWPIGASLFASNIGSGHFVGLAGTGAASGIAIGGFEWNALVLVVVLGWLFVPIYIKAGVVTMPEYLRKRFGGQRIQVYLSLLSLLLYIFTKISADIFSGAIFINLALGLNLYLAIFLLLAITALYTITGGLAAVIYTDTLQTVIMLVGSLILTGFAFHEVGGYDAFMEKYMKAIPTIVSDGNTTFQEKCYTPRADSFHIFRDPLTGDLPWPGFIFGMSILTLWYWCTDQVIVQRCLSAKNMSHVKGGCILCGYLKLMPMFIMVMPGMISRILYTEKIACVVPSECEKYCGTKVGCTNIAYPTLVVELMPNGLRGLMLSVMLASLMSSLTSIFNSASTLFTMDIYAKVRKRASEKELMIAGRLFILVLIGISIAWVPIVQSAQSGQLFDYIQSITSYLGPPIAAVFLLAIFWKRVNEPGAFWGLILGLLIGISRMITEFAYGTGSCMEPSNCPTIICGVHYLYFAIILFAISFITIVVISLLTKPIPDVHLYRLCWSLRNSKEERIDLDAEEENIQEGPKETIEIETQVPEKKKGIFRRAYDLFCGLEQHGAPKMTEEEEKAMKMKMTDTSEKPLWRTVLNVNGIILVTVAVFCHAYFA
In words: Inhibition of human SGLT1 expressed in CHO cells assessed as inhibition of sodium-dependent methyl-alpha-D-[U-14C]glucopyranoside uptake after 2 hrs. Format: cell-based.

The target in data set [2] is T2, Sodium/glucose cotransporter 2 (Homo sapiens, UniProt P31639).
T2 sequence (P31639 whole entry): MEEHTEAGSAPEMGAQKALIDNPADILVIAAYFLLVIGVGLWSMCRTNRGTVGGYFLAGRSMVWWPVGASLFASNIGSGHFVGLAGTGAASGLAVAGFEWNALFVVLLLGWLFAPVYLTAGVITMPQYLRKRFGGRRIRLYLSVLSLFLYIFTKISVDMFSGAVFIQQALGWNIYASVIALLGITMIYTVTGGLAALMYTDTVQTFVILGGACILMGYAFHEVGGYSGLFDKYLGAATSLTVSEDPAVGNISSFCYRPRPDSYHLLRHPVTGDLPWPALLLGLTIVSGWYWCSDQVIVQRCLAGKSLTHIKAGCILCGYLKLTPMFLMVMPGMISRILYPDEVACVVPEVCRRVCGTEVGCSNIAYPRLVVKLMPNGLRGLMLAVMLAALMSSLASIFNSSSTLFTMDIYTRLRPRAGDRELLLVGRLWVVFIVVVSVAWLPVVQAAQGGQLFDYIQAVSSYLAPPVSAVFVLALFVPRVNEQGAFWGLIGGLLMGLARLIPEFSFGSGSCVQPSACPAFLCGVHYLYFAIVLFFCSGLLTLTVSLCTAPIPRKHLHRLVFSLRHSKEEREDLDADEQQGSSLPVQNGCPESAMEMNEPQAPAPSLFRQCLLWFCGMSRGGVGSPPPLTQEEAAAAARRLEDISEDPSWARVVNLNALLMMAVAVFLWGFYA
In words: Inhibition of human SGLT2 expressed in CHO cells assessed as inhibition of sodium-dependent methyl-alpha-D-[U-14C]glucopyranoside uptake after 2 hrs. Format: cell-based.

A short description of data set [3]: Volume of distribution at steady state in Sprague-Dawley rat at 2 mg/kg, iv. Format: ADME, organism-based. The arrangement: dose 2 mg/kg, route intravenous. The conditions noted are these: in vivo, read-out: Vdss.
The nature of data set [4]: Clearance in Sprague-Dawley rat at 2 mg/kg, iv. It is filed as ADME, organism-based. The arrangement: dose 2 mg/kg, route intravenous. The conditions noted are these: in vivo.
A short description of data set [5]: Half life in Sprague-Dawley rat at 2 mg/kg, iv. Format: ADME, organism-based. Set-up: dose 2 mg/kg, route intravenous. The settings on record: in vivo.
Data set [6] in a line: Oral bioavailability in Sprague-Dawley rat at 5 mg/kg. Format: ADME, organism-based. The settings on record: in vivo.
The test system of another data set is Rattus norvegicus. The data set is described as follows: Antidiabetic activity in Sprague-Dawley rat assessed as maximum urinary glucose excretion at 60 mg/kg, po over 24 hrs measured per 200 g body weight. It is filed as functional, Urine.
The species named for another data set is Homo sapiens. The data set is described as follows: Selectivity ratio of IC50 for human SGLT2 over IC50 for human SGLT1.
Data set [7] is described as follows: Half life in Sprague-Dawley rat at 1 mg/kg, iv. Format: ADME, organism-based. Set-up: dose 1 mg/kg, route intravenous. The settings on record: in vivo.
Data set [8] in a line: Clearance in Sprague-Dawley rat at 1 mg/kg, iv. Format: ADME, organism-based. Set-up: dose 1 mg/kg, route intravenous. The settings on record: in vivo.
Data set [9] in a line: Volume of distribution at steady state in Sprague-Dawley rat at 1 mg/kg, iv. It is filed as ADME, organism-based. Set-up: dose 1 mg/kg, route intravenous. The settings on record: in vivo, read-out: Vdss.

Broadly, the IC50 is the concentration that inhibits the measured activity by half. One may read the clearance as the volume of plasma or blood freed of the substance per unit of time. A higher clearance goes with a high capacity for elimination. What is called half-life is the time in which the quantity being followed falls by half. In general, bioavailability refers to dose-corrected exposure relative to a reference, in per cent. A low value points to little systemic uptake.

As to `CCc1ccc(Cc2cc([C@@H]3O[C@]4(CCCO4)[C@@H](O)[C@H](O)[C@H]3O)ccc2C)cc1`, the concentration for half-maximal inhibition (IC50) was 1100 nM in data set [1] and 53 nM in data set [2].

Consider `CCc1ccc(Cc2cc([C@@H]3O[C@H](CO)[C@@H](O)C[C@H]3O)ccc2C)cc1`, for which the 50% inhibitory concentration (IC50) in [2] is 2000 nM.

For the compound `CCc1ccc(Cc2cc([C@@H]3O[C@H](CO)[C@@H](O)[C@@H](O)[C@H]3O)ccc2C)cc1`, the IC50 in data set [2] was determined as 3700 nM.

As for `COc1ccc(Cc2cc([C@@H]3OC4(COC4)[C@@H](O)[C@H](O)[C@H]3O)ccc2Cl)cc1`, the values for the IC50 in [1] and in data set [2] were above 9600 nM and 23 nM, respectively.

Take `CCOc1ccc(Cc2cc([C@@H]3O[C@H](CO)[C@@H](O)[C@H](O)[C@H]3O)ccc2Cl)cc1` [DAPAGLIFLOZIN]: the Vd in data set [3] amounted to 3.8 L/kg. This compound gave a clearance in data set [4] of 10 mL/min/kg. Moreover, in data set [5], the half-life was 264 min. Besides, in [6], the bioavailability came out at 100%.

In the case of `COc1ccc(Cc2cc([C@@H]3O[C@H](CO)[C@@H](OC)[C@H](O)[C@H]3O)ccc2Cl)cc1`, the half-maximal inhibitory concentration (IC50) in data set [2] was 180 nM.

As to `COc1ccc(Cc2cc([C@@H]3O[C@H](CO)C[C@H](O)[C@H]3O)ccc2Cl)cc1`, the IC50 in data set [2] was 21 nM.

Regarding `CCc1ccc(Cc2cc([C@@H]3OC4(CNC4)[C@@H](O)[C@H](O)[C@H]3O)ccc2C)cc1`, the half-inhibitory concentration (IC50) in data set [1] is above 10000 nM; in [2], 5100 nM.

`CCc1ccc(Cc2cc([C@@H]3O[C@H](CO)[C@H](O)[C@H](O)[C@H]3O)ccc2C)cc1`: the 50% inhibitory concentration (IC50) in [2] came out at 139 nM.

Take `COc1ccc(Cc2cc([C@@H]3O[C@H](C)[C@@H](O)[C@H](O)[C@H]3O)ccc2Cl)cc1`: the results for the IC50 in [1] and in [2] were 73 nM and 2.4 nM, respectively.

With `COc1ccc(Cc2cc([C@@H]3OC4(COC4)[C@@H](O)[C@H](O)[C@H]3O)ccc2C)cc1`, the Vd in [3] amounted to 2.3 L/kg. Moreover, in [4], the clearance turned out to be 22.3 mL/min/kg. The values for the IC50 in [1] and in data set [2] were 1540 nM and 6.6 nM, respectively. Also, the half-life in data set [5] is 72 min. Further, the Activity with Rattus norvegicus stood at 2000 mg. The compound also gave a bioavailability in [6] of 100%.

In the case of `COc1ccc(Cc2cc([C@@H]3O[C@H](CF)[C@@H](O)[C@H](O)[C@H]3O)ccc2Cl)cc1`, in data set [2], the IC50 turned out to be 5.1 nM.

Take `CCc1ccc(Cc2cc([C@@H]3OC4(CS(=O)(=O)C4)[C@@H](O)[C@H](O)[C@H]3O)ccc2C)cc1`: the IC50 in data set [1] is above 10000 nM; in data set [2] it was 14 nM.

Take `CCOc1ccc(Cc2cc([C@@H]3OC4(COC4)[C@@H](O)[C@H](O)[C@H]3O)ccc2Cl)cc1`: the half-maximal inhibitory concentration (IC50) came to 5600 nM in data set [1] and 32 nM in data set [2].

With `CCc1ccc(Cc2cc([C@@H]3O[C@H](CO)[C@@H](O)[C@H](O)[C@H]3O)ccc2C)cc1`, the concentration for half-maximal inhibition (IC50) in data set [2] is 1.5 nM.

For `CCc1ccc(Cc2cc([C@H]3C[C@@H](O)[C@H](O)[C@@H](CO)O3)ccc2C)cc1`, the IC50 in data set [2] is above 10000 nM.

As for `COc1ccc(Cc2cc([C@@H]3O[C@H](CO)[C@@H](O)[C@H](O)[C@H]3OC)ccc2Cl)cc1`, the IC50 in data set [2] worked out at 140 nM.

In the case of `COc1ccc(Cc2cc([C@@H]3OC(CO)(CO)[C@@H](O)[C@H](O)[C@H]3O)ccc2Cl)cc1`, the IC50 turned out to be 6800 nM in data set [1] and 59 nM in data set [2].

On to `COc1ccc(Cc2cc([C@@H]3OC4(CC4)[C@@H](O)[C@H](O)[C@H]3O)ccc2C)cc1`, for which the Ratio IC50 in the data set listed under Homo sapiens worked out at 47. Moreover, the half-maximal inhibitory concentration (IC50) was determined as 370 nM in [1] and 7.9 nM in data set [2]. This compound showed a half-life in data set [7] of 36.6 min. For the same compound, the clearance in data set [8] is 48.9 mL/min/kg. In data set [9], the Vd stood at 2.6 L/kg.

On to `CCc1ccc(Cc2cc([C@@H]3OC4(COC4)[C@@H](O)[C@H](O)[C@H]3O)ccc2C)cc1`, for which the half-maximal inhibitory concentration (IC50) in [1] came to 1500 nM; in data set [2], 3.4 nM.

In the case of `COc1ccc(Cc2cc([C@@H]3O[C@H](CO)[C@@H](O)[C@H](O)[C@H]3O)ccc2Cl)cc1`, the results for the IC50 in data set [1] and in data set [2] were 240 nM and 1 nM, respectively.

On to `CCc1ccc(Cc2cc([C@@H]3OC4(CC4)[C@@H](O)[C@H](O)[C@H]3O)ccc2C)cc1`, for which the Ratio IC50 in the data set filed under Homo sapiens was 63. Also, the values for the IC50 in data set [1] and in data set [2] were 190 nM and 3 nM, respectively. This compound also showed a half-life in data set [7] of 35.4 min. The clearance in data set [8] was found to be 112 mL/min/kg. The Vd in data set [9] worked out at 5.7 L/kg.
